US6355648B1, “Thio-oxindole derivatives” (American Home Products Corporation, priority 1999, dated 2002)
“And” between values parts separate entries of the source, which are not always exact repeats. Equal values may be shown once.

Tests used:
[1] = test system: rat uterine decidualization; experiment: Rat decidualization assay; type: in vivo; conditions: for EC50: half-maximal increase in decidual response (uterine wet weight), ovariectomized rats, s.c., individual studies
Protocol: 1. Rat Decidualization Assay:
The animals are treated once daily for seven days.
Uteri are removed and trimmed of fat. Decidualized (D-hom) and control (C-horn) uterine horns are weighed separately.
Body weight: Mean total animal body weight (default-kg)
Decidual response: [(D-C)/C]×100%

human PR = target: T1, human PR (Homo sapiens, UniProt P06401); experiment: PRE-luciferase assay in CV-1 cells; type: cell-based; conditions: PRE-luciferase agonist mode in CV-1 cells
T1 construct: expressed in transfected cells; host or cells: CV-1 cells, electroporated with pLEM-hPR-B plasmid
T1 sequence (P06401 1-933): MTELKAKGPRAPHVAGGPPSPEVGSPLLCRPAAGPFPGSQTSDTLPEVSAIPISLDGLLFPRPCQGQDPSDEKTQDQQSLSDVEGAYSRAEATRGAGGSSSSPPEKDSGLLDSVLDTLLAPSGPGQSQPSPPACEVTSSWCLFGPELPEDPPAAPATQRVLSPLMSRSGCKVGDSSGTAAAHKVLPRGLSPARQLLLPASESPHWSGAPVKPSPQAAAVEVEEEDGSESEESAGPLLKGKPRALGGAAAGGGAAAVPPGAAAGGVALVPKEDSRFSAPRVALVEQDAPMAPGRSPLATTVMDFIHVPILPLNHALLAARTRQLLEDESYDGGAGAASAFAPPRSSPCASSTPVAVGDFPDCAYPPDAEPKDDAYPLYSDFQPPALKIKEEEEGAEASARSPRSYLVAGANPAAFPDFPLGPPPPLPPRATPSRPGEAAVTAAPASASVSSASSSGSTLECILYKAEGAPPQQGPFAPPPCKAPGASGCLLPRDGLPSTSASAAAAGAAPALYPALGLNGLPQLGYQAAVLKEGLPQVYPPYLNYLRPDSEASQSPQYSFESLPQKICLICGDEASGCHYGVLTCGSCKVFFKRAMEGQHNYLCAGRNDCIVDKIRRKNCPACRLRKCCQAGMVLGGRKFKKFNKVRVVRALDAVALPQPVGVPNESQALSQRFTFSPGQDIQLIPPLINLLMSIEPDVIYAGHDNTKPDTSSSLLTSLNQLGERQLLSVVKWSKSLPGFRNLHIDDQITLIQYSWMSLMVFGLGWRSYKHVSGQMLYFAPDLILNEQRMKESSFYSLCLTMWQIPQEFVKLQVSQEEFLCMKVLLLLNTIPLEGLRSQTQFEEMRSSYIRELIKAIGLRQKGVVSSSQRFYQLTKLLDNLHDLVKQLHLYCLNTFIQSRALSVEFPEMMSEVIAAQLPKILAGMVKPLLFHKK
Protocol: 2. PRE-luciferase Assay in CV-1 Cells
The object of this assay is to determine a compound's progestational or antiprogestational potency based on its effect on PRE-luciferase reporter activity in CV-1 cells co-transfected with human PR and PRE-luciferase plasmids. The materials methods used in the assay are as follows.
a. Growth Medium: DMEM (BioWhittaker) containing 10% (v/v) fetal bovine serum (heat inactivated), 0.1 mM MEM non-essential amino acids, 100 U/ml penicillin, […] streptomycin, and 2 mM GlutaMax (GIBCO, BRL). Experimental medium: DMEM (BioWhittaker), phenol red-free, containing 10% (v/v) charcoal-stripped fetal bovine serum (heat-inactivated), 0.1 mM MEM non-essential amino acids, 100 U/ml penicillin, […] streptomycin, and 2 mM GlutaMax (GIBCO, BRL).
b. Cell Culture, Transfection, Treatment, and Luciferase Assay
Stock CV-1 cells are maintained in growth medium. Co-transfection is done using 1.2×10^7 cells, […] pLEM plasmid with hpR-B inserted at Sph1 and BamH1 sites, […] pGL3 plasmid with two PREs upstream of the luciferase sequence, and […] sonicated calf thymus DNA as carrier DNA in […]. Electroporation is carried out at 260 V and […] in a Biorad Gene Pulser II. After electroporation, cells are resuspended in growth medium and plated in 96-well plate at 40,000 cells/well in 200 μl. Following overnight incubation, the medium is changed to experimental medium. Cells are then treated with reference or test compounds in experimental medium. […] Twenty-four hr. after treatment, the medium is discarded, cells are washed three times with D-PBS (GIBCO, BRL). Fifty μl of cell lysis buffer (Promega, Madison, Wis.) is added to each well and the plates are shaken for 15 min in a Titer Plate Shaker (Lab Line Instrument, Inc.). Luciferase activity is measured using luciferase reagents from Promega.
Each treatment consists of at least 4 replicates. Log transformed data are used for analysis of variance and nonlinear dose response curve fitting for both agonist and antagonist modes. Huber weighting is used to downweight the effects of outliers. EC50 or IC50 values are calculated from the retransformed values.

[2] = target: T2, A-form of the human progesterone receptor (Homo sapiens, UniProt P06401); experiment: hPR binding assay (competitive radioligand binding)
T2 sequence (P06401 1-769 isoform P06401-2): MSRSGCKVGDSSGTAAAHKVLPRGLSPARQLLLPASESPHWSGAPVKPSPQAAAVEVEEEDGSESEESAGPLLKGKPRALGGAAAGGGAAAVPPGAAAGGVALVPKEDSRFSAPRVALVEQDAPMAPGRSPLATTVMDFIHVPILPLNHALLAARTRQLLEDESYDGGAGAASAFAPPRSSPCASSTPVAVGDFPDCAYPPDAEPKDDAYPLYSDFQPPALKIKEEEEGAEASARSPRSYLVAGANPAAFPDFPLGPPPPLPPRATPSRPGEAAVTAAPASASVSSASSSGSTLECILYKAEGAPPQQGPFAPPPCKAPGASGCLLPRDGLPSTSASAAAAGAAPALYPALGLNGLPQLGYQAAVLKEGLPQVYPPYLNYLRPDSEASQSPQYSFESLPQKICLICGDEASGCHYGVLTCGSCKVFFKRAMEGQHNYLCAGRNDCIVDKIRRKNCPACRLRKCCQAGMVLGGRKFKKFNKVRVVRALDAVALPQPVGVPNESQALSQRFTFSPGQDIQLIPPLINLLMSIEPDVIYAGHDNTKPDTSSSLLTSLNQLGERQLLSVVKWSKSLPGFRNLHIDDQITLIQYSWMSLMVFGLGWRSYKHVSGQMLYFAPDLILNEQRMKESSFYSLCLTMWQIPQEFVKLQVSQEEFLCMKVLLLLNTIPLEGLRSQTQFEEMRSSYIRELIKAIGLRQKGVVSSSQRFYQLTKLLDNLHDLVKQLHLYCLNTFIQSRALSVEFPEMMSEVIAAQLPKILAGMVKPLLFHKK

ovulation = experiment: Rat ovulation inhibition model; type: in vivo
T47D cells = experiment: T47D cell proliferation assay (BrdU incorporation); type: cell-based; conditions: half-maximal increase in BrdU incorporation in T47D cells; individual studies
Protocol: 3. T47D Cell Proliferation Assay
The objective of this assay is the determination of progestational and antiprogestational potency by using a cell proliferation assay in T47D cells. A compound's effect on DNA synthesis in T47D cells is measured.
DMEM:F12 (1:1) (GIBCO, BRL) supplemented with 10% (v/v) fetal bovine serum (not heat-inactivated), 100 U/ml penicillin, […], and 2 mM GlutaMax (GIBCO, BRL).
Minimum Essential Medium (MEM) (#51200-038GIBCO, BRL) phenol red-free supplemented with 0.5% charcoal stripped fetal bovine serum, 100 U/ml penicillin, 200 mg/ml streptomycin, and 2 mM GlutaMax (GIBCO, BRL).
Stock T47 D cells are maintained in growth medium For BrdU incorporation assay, cells are plated in 96-well plates (Falcon, Becton Dickinson Labware) at 10,000 cells/well in growth medium. […]
At the end of BrdU labeling, the medium is removed and BrdU incorporation is measured using a cell proliferation ELISA kit (#RPN 250, Amersham Life Science) according to manufacturer's instructions. […] Then 25 μl of 1 M sulfuric acid is added to each well to stop color reaction and optical density is read in a plate reader at 450 nm within 5 min.
Square root-transformed data are used for analysis of variance and nonlinear dose response curve fitting for both agonist and antagonist modes. […] EC50 or IC50 values are calculated from the retransformed values. […]

melting point [°C]	EC50 (human PR) [nM]	Structure (SMILES)	EC50 [1]	further results
		C#C[C@]1(O)CC[C@H]2[C@@H]3CCC4=CC(=O)CC[C@@H]4[C@H]3C(=C)C[C@@]21CC [3-Ketodesogestrel]	0.10 mg/kg, s.c. and 0.06 mg/kg, s.c. and 0.11 mg/kg, s.c.	
223 to 227	0.8	S=C1Nc2ccc(-c3cccc(Cl)c3)cc2C12CCCCC2 [Example 1, 5′-(3-Chlorophenyl)spiro[cyclohexane-1,3′-[3H]indole]-2′(1′H)-thione]		Ki [2]: 0.2 nM
230 to 232	0.2	N#Cc1cc(-c2ccc3c(c2)C2(CCCCC2)C(=S)N3)cs1 [Example 3, 4-(1′, 2′-Dihydro-2′-thioxospiro[cyclohexane-1,3′-[3H]indol]-5′-yl)-2-thiophenecarbonitrile]		Ki [2]: 0.1 nM
236 to 250	0.1	N#Cc1cc(F)cc(-c2ccc3c(c2)C2(CCCCC2)C(=S)N3)c1 [Example 4, 3-(1,2-Dihydro-2-thioxospiro[cyclohexane-1,3-[3H]indol]-5-yl)-5-fluorobenzonitrile]		Ki [2]: 0.06 nM; Ovulation inhibition IC100 (ovulation): 0.1 mg/kg
244 to 249	0.3	Cc1cc(C(N)=S)sc1-c1ccc2c(c1)C1(CCCCC1)C(=S)N2 [Example 5, 4-Methyl-5-(1,2-dihydro-2-thioxospiro[cyclohexane-1,3-[3H]-indol]-5-yl)-2-thiophene Thioamide]		
158 to 160		CC1(C)C(=S)Nc2ccc(-c3cccc(Cl)c3)cc21 [Example 16, 5-(3-Chlorophenyl)-3,3-dimethyl-1,3-dihydro-2H-indole-2-thione]		
168 to 170		CC1(Cc2ccccc2)C(=S)Nc2ccc(-c3cccc(Cl)c3)cc21 (stereo not shown) [Example 17, 3-Benzyl-5-(3-chlorophenyl)-3-methyl-1,3-dihydro-2H-indole-2-thione]		
149 to 150		COc1cccc(-c2ccc3c(c2)C(C)(C)C(=S)N3)c1 [Example 19, 5-(3-Methoxyphenyl)-3,3-dimethyl-1,3-dihydro-2H-indole2-thione]		
		C#C[C@]1(O)CC[C@H]2[C@@H]3CCC4=CC(=O)CC[C@@H]4[C@H]3CC[C@@]21CC [Levonorgestrel]	0.08 mg/kg, s.c. and 0.12 mg/kg, s.c. and 0.09 mg/kg, s.c.	
		CC(=O)O[C@]1(C(C)=O)CC[C@H]2[C@@H]3C[C@H](C)C4=CC(=O)CC[C@]4(C)[C@H]3CC[C@@]21C [MPA, medroxyprogesterone acetate]	0.42 mg/kg, s.c. and 0.39 mg/kg, s.c.	EC50 (T47D cells): 0.017 nM and 0.019 nM
		CC(=O)[C@H]1CC[C@H]2[C@@H]3CCC4=CC(=O)CC[C@]4(C)[C@H]3CC[C@]12C [Progesterone]	5.50 mg/kg, s.c. and 6.21 mg/kg, s.c.	
		CC#C[C@]1(O)CC[C@H]2[C@@H]3CCC4=CC(=O)CCC4=C3[C@@H](c3ccc(N(C)C)cc3)C[C@@]21C [RU486]		IC50 ([1]; half-maximal decrease in EC50 progesterone induced decidual response, rats, p.o.): 0.21 mg/kg, p.o. and 0.14 mg/kg, p.o.
		C[C@H](O)C(=O)[C@@]1(C)CC[C@H]2[C@@H]3CCC4=CC(=O)CCC4=C3CC[C@@]21C [Trimegestone]		EC50 (T47D cells): 0.017 nM and 0.014 nM and 0.019 nM
